{
  "source": "patent US20250025397A1",
  "about": "“AN OIL-IN-WATER EMULSION GEL COMPRISING TIOTROPIUM BROMIDE” (Dryox Health, S.L., priority 2021, published 2025)",
  "key": {"[1]": {"assay": "Tiotropium maximum solubility in a selection of excipients", "type": "physicochemical", "experimental": "For the evaluation of the compatibility of the active in each excipient, 25 mg of tiotropium bromide (TTB) were weighed in suitable glass containers and increasing amounts of the appropriate solvent were added. The samples were subjected to heating and ultrasonication when necessary. The appearance of the mixture and the maximum concentration of TTB in each solvent was recorded.\nThe solubility of the active was determined in different excipients (polymer solvents, permeation enhancers, surfactants, emollients, etc.). Table 1 summarizes the maximum solubility achieved in each of them."}, "[2]": {"conditions": "cited from earlier work"}},
  "note": "Like-named read-outs stand apart in the source and are kept apart here.",
  "data": [
    {"compound": "C[N+]1(C)[C@@H]2CC(OC(=O)C(O)(c3cccs3)c3cccs3)C[C@H]1[C@@H]1O[C@@H]12.[Br-]", "note": "(stereo partly drawn) [Tiotropium bromide, [(1S,2S,4R,5R)-9,9-dimethyl-3-oxa-9-azoniatricyclo[3.3.1.0^2,4]nonan-7-yl]2-hydroxy-2,2-dithiophen-2-ylacetate bromide]", "values": [
      {"measurement": "Maximum solubility", "setting": "[1]; in 1,3-propanediol", "result": "2.50 % (w/w)"},
      {"measurement": "Maximum solubility", "setting": "[1]; in Benzyl Alcohol", "result": "50.00 % (w/w)"},
      {"measurement": "Maximum solubility", "setting": "[1]; in Cremophor EL", "result": "0.20 % (w/w)"},
      {"measurement": "Maximum solubility", "setting": "[1]; in Cremophor RH40", "result": "<0.12 % (w/w)"},
      {"measurement": "Maximum solubility", "setting": "[1]; in DMSO", "result": ">30.00 % (w/w)"},
      {"measurement": "Maximum solubility", "setting": "[1]; in Dimethyl fomamide", "result": "40.00 % (w/w)"},
      {"measurement": "Maximum solubility", "setting": "[1]; in Ethanol", "result": "0.80 % (w/w)"},
      {"measurement": "Maximum solubility", "setting": "[1]; in Ethyl Oleate", "result": "<0.12 % (w/w)"},
      {"measurement": "Maximum solubility", "setting": "[1]; in Glycerol", "result": "6.00 % (w/w)"},
      {"measurement": "Maximum solubility", "setting": "[1]; in IPM", "result": "<0.12 % (w/w)"},
      {"measurement": "Maximum solubility", "setting": "[1]; in Isopropyl Alcohol", "result": "0.13 % (w/w)"},
      {"measurement": "Maximum solubility", "setting": "[1]; in Kollicream ® 3C", "result": "<0.12 % (w/w)"},
      {"measurement": "Maximum solubility", "setting": "[1]; in Labrasol", "result": "0.55 % (w/w)"},
      {"measurement": "Maximum solubility", "setting": "[1]; in Lactic acid", "result": "20.00 % (w/w)"},
      {"measurement": "Maximum solubility", "setting": "[1]; in Linseed oil", "result": "<0.12 % (w/w)"},
      {"measurement": "Maximum solubility", "setting": "[1]; in MCT", "result": "<0.12 % (w/w)"},
      {"measurement": "Maximum solubility", "setting": "[1]; in Oleic acid", "result": "<0.12 % (w/w)"},
      {"measurement": "Maximum solubility", "setting": "[1]; in PEG-400", "result": "1.67 % (w/w)"},
      {"measurement": "Maximum solubility", "setting": "[1]; in Polysorbate 20", "result": "1.15 % (w/w)"},
      {"measurement": "Maximum solubility", "setting": "[1]; in Polysorbate 80", "result": "0.20 % (w/w)"},
      {"measurement": "Maximum solubility", "setting": "[1]; in Propylene Glycol", "result": "5.00 % (w/w)"},
      {"measurement": "Maximum solubility", "setting": "[1]; in Transcutol HP", "result": "<0.12 % (w/w)"},
      {"measurement": "Maximum solubility", "setting": "[1]; in Triacetin", "result": "<0.12 % (w/w)"},
      {"measurement": "Maximum solubility", "setting": "[1]; in Triolein", "result": "<0.12 % (w/w)"},
      {"measurement": "solubility", "setting": "[2]; in dimethyl sulphoxide", "result": "freely soluble"},
      {"measurement": "solubility", "setting": "[2]; in methanol", "result": "soluble"},
      {"measurement": "solubility", "setting": "[2]; in methylene chloride", "result": "practically insoluble"},
      {"measurement": "solubility", "setting": "[2]; in water", "result": "sparingly soluble"},
      {"measurement": "solubility in aqueous solutions", "setting": "[2]; room temperature, independent of pH", "result": "approx. 2.5%"}
    ]}
  ]
}
